The results in this text go back to US9399649B2, “Compounds for treating spinal muscular atrophy” (PTC Therapeutics Inc., priority 2012, dated 2016).

The subject of one series is Smn protein. Description: Smn protein assay in cultured cells (SMN HTRF). Format: cell-based, human. The following applies: SMA patient fibroblast cells (GM03813), 48 hours; for EC1.5x for Smn protein expression: 7-point concentration curve, concentration producing 1.5 times Smn protein vs DMSO vehicle; for maximum fold (Fold) increase of Smn protein: 7-point concentration data, relative to vehicle control. On the procedure: The SMN HTRF (homogeneous time resolved fluorescence) assay is used to quantify the level of Smn protein in SMA patient fibroblast cells treated with test compounds.
Cells are thawed and cultured in DMEM-10% FBS for 72 hours. Cells are trypsinized, counted and re-suspended to a concentration of 25,000 cells/mL in DMEM-10% FBS. The cell suspensions are plated at 5,000 cells per well in a 96 well microtiter plate and incubated for 3 to 5 hours. […] Test compounds are serially diluted 3.16-fold in 100% DMSO to generate a 7-point concentration curve. 1 μL of test compound solution is transferred to cell-containing wells and cells are incubated for 48 hours in a cell culture incubator (37° C., 5% CO2, 100% relative humidity). Triplicate samples are set up for each test compound concentration. After 48 hours, the supernatant is removed from the wells and 25 μL of the RIPA lysis buffer, containing protease inhibitors, is added to the wells and incubated with shaking at room temperature for 1 hour. 25 μL of the diluent is added and then 35 μL of the resulting lysate is transferred to a 384-well plate, where each well contains 5 μL of the antibody solution (1:100 dilution of anti-SMN d2 and anti-SMN kryptate in SMN reconstitution buffer). The plate is centrifuged for 1 minute to bring the solution to the bottom of the wells, then incubated overnight at room temperature. Fluorescence for each well of the plate at 665 nm and 620 nm is measured on an EnVision multilabel plate reader (Perkin-Elmer).
The normalized fluorescence signal is calculated for each sample, Blank and vehicle control well by dividing the signal at 665 nm by the signal at 620 nm. Normalizing the signal accounts for possible fluorescence quenching due to the matrix effect of the lysate. The ΔF value (a measurement of Smn protein abundance as a percent value) for each sample well is calculated by subtracting the normalized average fluorescence for the Blank control wells from the normalized fluorescence for each sample well, then dividing this difference by the normalized average fluorescence for the Blank control wells and multiplying the resulting value by 100. The ΔF value for each sample well represents the Smn protein abundance from test compound-treated samples. The ΔF value for each sample well is divided by the ΔF value for the vehicle control wells to calculate the fold increase in Smn protein abundance relative to the vehicle control.

The test system of series [1] is full length SMN2 minigene mRNA containing SMN2 exon 7. Kind of series: SMN2 minigene mRNA splicing RT-qPCR assay in cultured cells. It counts as cell-based, human. To be noted: Homo sapiens, HEK293-H; HEK293H cells stably transfected with SMN2-A minigene, 24 hours, 7-point concentration curve; concentration giving 1.5-fold full length SMN2 mRNA vs vehicle; read-out: EC1.5x for production of full length SMN2 mRNA. As to the method:
The reverse transcription-quantitative PCR-based (RT-qPCR) assay is used to quantify the level of the full length SMN2 minigene mRNA containing SMN2 exon 7 in a HEK293H cell line stably transfected with said minigene and treated with a test compound.
HEK293H cells stably transfected with the SMN2-A minigene construct described above (10,000 cells/well) are seeded in 200 ut, of cell culture medium (DMEM plus 10% FBS, with 200 μg/mL hygromycin) in 96-well flat-bottom plates and the plate is immediately swirled to ensure proper dispersal of cells, forming an even monolayer of cells. Cells are allowed to attach for at least 4-6 hours. Test compounds are serially diluted 3.16-fold in 100% DMSO to generate a 7-point concentration curve. A solution of test compound (1 μL, 200× in DMSO) is added to each cell-containing well and the plate is incubated for 24 hours in a cell culture incubator (37° C., 5% CO2, 100% relative humidity). 2 replicates are prepared for each test compound concentration. The cells are then lysed in Cells-To-Ct lysis buffer and the lysate is stored at −80° C.
Primer SMN Forward A (SEQ ID NO. 1) hybridizes to a nucleotide sequence in exon 7 (nucleotide 22 to nucleotide 40), primer SMN Reverse A (SEQ ID NO. 2) hybridizes to a nucleotide sequence in the coding sequence of Firefly luciferase, SMN Probe A (SEQ ID NO. 3) hybridizes to a nucleotide sequence in exon 7 (nucleotide 50 to nucleotide 54) and exon 8 (nucleotide 1 to nucleotide 21). The combination of these three oligonucleotides detects only SMN1 or SMN2 minigenes (RT-qPCR) and will not detect endogenous SMN1 or SMN2 genes.
The SMN forward and reverse primers are used at final concentrations of 0.4 μM. The SMN probe is used at a final concentration of 0.15 μM. The GAPDH primers are used at final concentrations of 0.2 μM and the probe at 0.15 μM.
The SMN2-minigene GAPDH mix (15 μL total volume) is prepared by combining 7.5 μL of 2×RT-PCR buffer, 0.4 μL of 25×RT-PCR enzyme mix, 0.75 μL of 20×GAPDH primer-probe mix, 4.0075 μL of water, 2 μL of 10-fold diluted cell lysate, 0.06 μL of 100 μM SMN forward primer, 0.06 μL of 100 μM SMN reverse primer, and 0.225 μL of 100 μM SMN probe.
PCR is carried out at the following temperatures for the indicated time: Step 1: 48° C. (15 min); Step 2: 95° C. (10 min); Step 3: 95° C. (15 sec); Step 4: 60° C. (1 min); then repeat Steps 3 and 4 for a total of 40 cycles.
Each reaction mixture contains both SMN2-A minigene and GAPDH primersprobe sets (multiplex design), allowing simultaneous measurement of the levels of two transcripts.
Two SMN spliced products are generated from the SMN2 minigene. The first spliced product containing exon 7, corresponding to full length SMN2 mRNA, is referred to herein using the term “SMN2 minigene FL.” The second spliced product lacking exon 7 is referred to herein using the term “SMN2 minigene Δ7.”
The increase of SMN2 minigene FL mRNA relative to that in cells treated with vehicle control is determined from real-time PCR data using a modified ΔΔCt method (as described in Livak and Schmittgen, Methods, 2001, 25:402-8). The amplification efficiency (E) is calculated from the slope of the amplification curve for SMN2 minigene FL and GAPDH individually. The abundances of SMN2 minigene FL and GAPDH are then calculated as (1+E)^−Ct, where Ct is the threshold value for each amplicon. The abundance of SMN2 minigene FL is normalized to GAPDH abundance. The normalized SMN2 minigene FL abundance from test compound-treated samples is then divided by normalized SMN2 minigene FL abundance from vehicle-treated cells to determine the level of SMN2 FL mRNA relative to vehicle control.
On the technique in general: Quantitative PCR measures a nucleic acid by following its amplification.

`CCCN1CCN(c2ccc3cc(-c4cn5cc(C)nc(C)c5n4)oc(=O)c3c2)C[C@H]1C` [Cpd 141, 3-(6,8-dimethylimidazo[1,2-a]pyrazin-2-yl)-7-[(3R)-3-methyl-4-propylpiperazin-1-yl]-1H-isochromen-1-one]: the melting point (usually the temperature of the solid-liquid transition) is 251 to 256 °C. For the same molecule, in the series on Smn protein, the “EC1.5x for Smn protein expression” value is recorded as “**** (an EC1.5×≦0.3 nM is indicated by four stars (****))” and the “maximum fold (Fold) increase of Smn protein” value (shortened to “maximum fold (Fold) increase”) was “***** (a fold increase >1.65 is indicated by five stars (*****))”. The EC (1.5-fold) in series [1] is at most 0.1 µM.

As to `CCCN1CCC(c2ccc3cc(-c4cn5cc(C)nc(C)c5n4)oc(=O)c3c2)CC1` [Cpd 116, 3-(6,8-dimethylimidazo[1,2-a]pyrazin-2-yl)-7-(1-propylpiperidin-4-yl)-1H-isochromen-1-one], the melting point is 204 to 206 °C. For the same molecule, in the series on Smn protein, the “EC1.5x for Smn protein expression” value is “*** (an EC1.5× between >0.3 nM and ≦1 nM is indicated by three stars (***))”; the “maximum fold (Fold) increase” value is “**** (a fold increase between >1.5 and ≦1.65 is indicated by four stars (****))”. For the same molecule, the EC (1.5-fold) in series [1] was at most 0.1 µM.

In turn, `COc1ccc(F)cc1-c1cc2ccc(N3CCN[C@@H](C)C3)cc2c(=O)o1` [Cpd 48, 3-(5-fluoro-2-methoxyphenyl)-7-[(3S)-3-methylpiperazin-1-yl]-1H-isochromen-1-one] returned a melting point of 115 to 117 °C. The “maximum fold (Fold) increase” value in the series with Smn protein was “* (A maximum fold increase of ≦1.2 is indicated by one star (*))”. Also, the EC (1.5-fold) in series [1] lay within 0.3 to 1 µM.

The molecule `C[C@H]1CN(c2ccc3cc(-c4ccc5c(c4)OCO5)oc(=O)c3c2)CCN1` [Cpd 40, 3-(1,3-benzodioxol-5-yl)-7-[(3S)-3-methylpiperazin-1-yl]-1H-isochromen-1-one] registered a melting point of 248 to 250 °C. For the same molecule, in the series with Smn protein, the “maximum fold (Fold) increase” value was “* (A maximum fold increase of ≦1.2 is indicated by one star (*))”. For the same molecule, the EC (1.5-fold) in series [1] lay within 0.3 to 1 µM.

For `Cc1cn2cc(-c3cc4ccc(N5CCN(C)CC5)cc4c(=O)o3)cc2c(C)n1` [Cpd 76, 3-(1,3-dimethylpyrrolo[1,2-a]pyrazin-7-yl)-7-(4-methylpiperazin-1-yl)-1H-isochromen-1-one], the melting point is 219 to 221 °C. For the same molecule, in the series on Smn protein, the “EC1.5x for Smn protein expression” value is “** (an EC1.5× between >1 μM, and ≦3 nM is indicated by two stars (**))”; the “maximum fold (Fold) increase” value was “*** (a fold increase between >1.35 and ≦1.5 is indicated by three stars (***))”. The EC (1.5-fold) in series [1] is at most 0.1 µM.

With `CCc1nc(C)cn2cc(-c3cc4ccc(N5CCN[C@H](C)C5)cc4c(=O)o3)nc12` [Cpd 153, 3-(8-ethyl-6-methylimidazo[1,2-a]pyrazin-2-yl)-7-[(3R)-3-methylpiperazin-1-yl]-1H-isochromen-1-one], the melting point lay within 208 to 213 °C. Further, in the series with Smn protein, the “EC1.5x for Smn protein expression” value was “**** (an EC1.5×≦0.3 nM is indicated by four stars (****))” and the “maximum fold (Fold) increase” value is “***** (a fold increase >1.65 is indicated by five stars (*****))”. The EC (1.5-fold) in series [1] is at most 0.1 µM.

Regarding `Cc1cn2cc(-c3cc4ccc(N5CCN(C)[C@H](C)C5)cc4c(=O)o3)nc2c(C)n1` [Cpd 72, 3-(6,8-dimethylimidazo[1,2-a]pyrazin-2-yl)-7-[(3R)-3,4-dimethylpiperazin-1-yl]-1H-isochromen-1-one], the melting point lay in the range of 252 to 254 °C. For the same molecule, in the series with Smn protein, the “EC1.5x for Smn protein expression” value is “*** (an EC1.5× between >0.3 nM and ≦1 nM is indicated by three stars (***))”; the “maximum fold (Fold) increase” value is “***** (a fold increase >1.65 is indicated by five stars (*****))”. Besides, the EC (1.5-fold) in series [1] is at most 0.1 µM.

In turn, `Cc1cn2cc(-c3cc4ccc(N5CCN(C6CCC6)[C@H](C)C5)cc4c(=O)o3)nc2c(C)n1` [Cpd 143, 7-[(3R)-4-cyclobutyl-3-methylpiperazin-1-yl]-3-(6,8-dimethylimidazo[1,2-a]pyrazin-2-yl)-1H-isochromen-1-one] came in with a melting point of 281 to 285 °C. Moreover, in the series with Smn protein, the “EC1.5x for Smn protein expression” value is listed as “**** (an EC1.5×≦0.3 nM is indicated by four stars (****))” and the “maximum fold (Fold) increase” value was “***** (a fold increase >1.65 is indicated by five stars (*****))”. Besides, the EC (1.5-fold) in series [1] is at most 0.1 µM.

For `CN1CCCN(c2ccc3cc(-c4nc5ccccc5s4)oc(=O)c3c2)CC1` [Cpd 11, 3-(1,3-benzothiazol-2-yl)-7-(4-methyl-1,4-diazepan-1-yl)-1H-isochromen-1-one], the melting point was in the range of 270 to 272 °C. Further, the “maximum fold (Fold) increase” value with Smn protein is on record as “* (A maximum fold increase of ≦1.2 is indicated by one star (*))”. Moreover, the EC (1.5-fold) in series [1] was in the range of 0.3 to 1 µM.

`C[C@H]1CN(c2ccc3cc(-c4ccc(OC(F)F)cc4)oc(=O)c3c2)CCN1` [Cpd 54, 3-[4-(difluoromethoxy)phenyl]-7-[(3S)-3-methylpiperazin-1-yl]-1H-isochromen-1-one]: the melting point lay in the range of 121 to 123 °C. In addition, the “maximum fold (Fold) increase” value in the series with Smn protein is reported as “* (A maximum fold increase of ≦1.2 is indicated by one star (*))”. Also, in series [1], the EC (1.5-fold) lay within 0.3 to 1 µM.

`CN1CCN(c2ccc3cc(-c4ccc5nn(C)cc5c4)oc(=O)c3c2)CC1` [Cpd 157, 3-(2-methyl-2H-indazol-5-yl)-7-(4-methylpiperazin-1-yl)-1H-isochromen-1-one] gave a melting point of 239 to 240 °C. In the series on Smn protein, the “EC1.5x for Smn protein expression” value is listed as “**** (an EC1.5×≦0.3 nM is indicated by four stars (****))”; the “maximum fold (Fold) increase” value was “**** (a fold increase between >1.5 and ≦1.65 is indicated by four stars (****))”. The EC (1.5-fold) in series [1] is at most 0.1 µM.
